Holding throughout (type): in vivo
Assay [1] has as its system Aphis gossypii. The experiment in a line: Aphis gossypii test (leaf dip, cotton). The conditions noted are these: 500 ppm active compound, cotton leaves dipped. As to the method: (§1) [table] To produce a suitable preparation of active compound, 1 part by weight of active compound is mixed with the stated amounts of solvent and emulsifier, and the concentrate is diluted with emulsifier-containing water to the desired concentration. Cotton leaves (Gossypium hirsutum) which are heavily infested by the cotton aphids (Aphis gossypii) are treated by being dipped into the preparation of active compound of the desired concentration. After the desired period of time, the kill in % is determined. 100% means that all aphids have been killed; 0% means that none of the aphids have been killed.

The test system of assay [2] is Aphis gossypii. The assay is described as follows: Test for persistency: Aphis gossypii (root-systemic action). The conditions noted are these: 4 ppm in soil, cotton. On the procedure: (§2) [table] To produce a suitable preparation of active compound, 1 part by weight of active compound is mixed with the stated amounts of solvent and emulsifier, and the concentrate is diluted with water to the desired concentration. The preparation of active compound is mixed intimately with the soil. The stated concentration refers to the amount of active compound per volume unit of soil (mg/l). The treated soil is filled into pots, and into these pots is planted cotton at the cotyledon stage. In this way, the active compound can be taken up from the soil into the roots of the plants and be transported into the leaves. After the stated number of days, cotton aphids (Aphis gossypii) are, in infection chambers, placed on the leaves. After the desired period of time, the kill in % is determined. 100% means that all aphids have been killed; 0% means that none of the aphids have been killed.

Another assay concerns Plutella xylostella. The experiment in a line: Plutella test. As to conditions: 500 ppm active compound, cabbage leaves dipped. On the procedure: (§3) [table] To produce a suitable preparation of active compound, 1 part by weight of active compound is mixed with the stated amounts of solvent and emulsifier, and the concentrate is diluted with emulsifier-containing water to the desired concentration. Cabbage leaves (Brassica oleracea) are treated by being dipped into the preparation of active compound of the desired concentration and are populated with caterpillars of the diamondback moth (Plutella xylostella) while leaves are still moist. After the desired period of time, the kill in % is determined. 100% means that all caterpillars have been killed; 0% means that none of the caterpillars have been killed.

The test system of assay [3] is Myzus persicae. The experiment in a line: Test for persistency: Myzus persicae (root-systemic action). As to conditions: 4 ppm in soil, broad beans. As to the method:
as §2, with “pre-germinated broad beans.” for “cotton at the cotyledon stage.”, “peach” for “cotton”, “(Myzus persicae)” for “(Aphis gossypii)”

A further assay relates to Phaedon cochleariae. The experiment in a line: Phaedon larvae test. The conditions noted are these: 500 ppm active compound, cabbage leaves dipped. On the procedure:
as §3, with “with larvae” for “with caterpillars”, “the mustard beetle (Phaedon cochleariae)” for “the diamondback moth (Plutella xylostella)”, “all beetle larvae” for “all caterpillars”, “the beetle larvae” for “the caterpillars”

Assay [4] deals with Alopecurus. The assay is described as follows: Pre-emergence test, Alopecurus. The conditions noted are these: pre-emergence/greenhouse; 250 g of ai/ha; after three weeks. As to the method:
(§4) [table] To produce a suitable preparation of active compound, 1 part by weight of active compound is mixed with the stated amount of solvent, the stated amount of emulsifier is added and the concentrate is diluted with water to the desired concentration. Seeds of the test plants are sown in normal soil. After about 24 hours, the soil is sprayed with the preparation of active compound such that the particular amounts of active compound desired are applied per unit area. The concentration of the spray liquor is chosen such that the particular amounts of active compound desired are applied in 1000 l of water/ha. After three weeks, the degree of damage to the plants is rated in % damage in comparison to the development of the untreated control. The figures denote: • 0%=no effect (like untreated control) • 100%=total destruction

Assay [5] has as its system Avena fatua. The experiment in a line: Post-emergence test, Avena fatua. The conditions noted are these: post-emergence/greenhouse; 250 g of ai/ha; after three weeks. As to the method: as §4, with “Test plants” for “Seeds”, “a height of 5-15 cm” for “the test plants”, “are” for “are sown in normal soil. After about 24 hours, the soil is”, “(=like” for “(like”
Assay [6] has as its system Avena fatua. The experiment in a line: Pre-emergence test, Avena fatua. The conditions noted are these: pre-emergence/greenhouse; 250 g of ai/ha; after three weeks. On the procedure: as §4
Assay [7] relates to Echinochloa. The experiment in a line: Post-emergence test, Echinochloa. As to conditions: post-emergence/greenhouse; 250 g of ai/ha; after three weeks. As to the method:
as §4, with “Test plants” for “Seeds”, “a height of 5-15 cm” for “the test plants”, “are” for “are sown in normal soil. After about 24 hours, the soil is”, “(=like” for “(like”

Assay [8] deals with Echinochloa. The assay is described as follows: Pre-emergence test, Echinochloa. As to conditions: pre-emergence/greenhouse; 250 g of ai/ha; after three weeks. As to the method: as §4
Assay [9] has as its system Setaria. The experiment in a line: Pre-emergence test, Setaria. The conditions noted are these: pre-emergence/greenhouse; 250 g of ai/ha; after three weeks. As to the method: as §4
Assay [10] concerns Sugar beet. The assay is described as follows: Pre-emergence test, Sugar beet. As to conditions: pre-emergence/greenhouse; 250 g of ai/ha; after three weeks; crop. On the procedure: as §4
Assay [11] has as its system Setaria. The assay is described as follows: Post-emergence test, Setaria. The conditions noted are these: post-emergence/greenhouse; 250 g of ai/ha; after three weeks. As to the method: as §4, with “Test plants” for “Seeds”, “a height of 5-15 cm” for “the test plants”, “are” for “are sown in normal soil. After about 24 hours, the soil is”, “(=like” for “(like”
Assay [12] relates to Myzus persicae. The experiment in a line: Myzus test (leaf dip, cabbage). As to conditions: 500 ppm active compound, cabbage leaves dipped. On the procedure: as §1, with “Cabbage” for “Cotton”, “(Brassica oleracea)” for “(Gossypium hirsutum)”, “peach” for “the cotton”, “(Myzus persicae)” for “(Aphis gossypii)”
The subject of assay [13] is Sinapis. The experiment in a line: Post-emergence test, Sinapis. As to conditions: post-emergence/greenhouse; 250 g of ai/ha; after three weeks. On the procedure:
as §4, with “Test plants” for “Seeds”, “a height of 5-15 cm” for “the test plants”, “are” for “are sown in normal soil. After about 24 hours, the soil is”, “(=like” for “(like”

A further assay relates to Meloidogyne incognita. The assay is described as follows: Meloidogyne test (gall formation on lettuce roots). As to conditions: 20 ppm active compound, nematicidal action by gall formation. As to the method:
[table] To produce a suitable preparation of active compound, 1 part by weight of active compound is mixed with the stated amounts of solvent and emulsifier, and the concentrate is diluted with water to the desired concentration. Vessels are filled with sand, solution of active compound, Meloidogyne incognita egg/larvae suspension and lettuce seeds. The lettuce seeds germinate and the plants develop. On the roots, galls develop. After the desired period of time, the nematicidal action is determined in % by the formation of galls. 100% means that no galls have been found; 0% means that the number of galls on the treated plants corresponds to that of the untreated control.

Assay [14] concerns Sugar beet. The assay is described as follows: Post-emergence test, Sugar beet. As to conditions: post-emergence/greenhouse; 250 g of ai/ha; after three weeks; crop. On the procedure:
as §4, with “Test plants” for “Seeds”, “a height of 5-15 cm” for “the test plants”, “are” for “are sown in normal soil. After about 24 hours, the soil is”, “(=like” for “(like”

Assay [15] deals with Alopecurus. The assay is described as follows: Post-emergence test, Alopecurus. The conditions noted are these: post-emergence/greenhouse; 250 g of ai/ha; after three weeks. As to the method: as §4, with “Test plants” for “Seeds”, “a height of 5-15 cm” for “the test plants”, “are” for “are sown in normal soil. After about 24 hours, the soil is”, “(=like” for “(like”
Assay [16] has as its system Sinapis. The assay is described as follows: Pre-emergence test, Sinapis. The conditions noted are these: pre-emergence/greenhouse; 250 g of ai/ha; after three weeks. On the procedure: as §4
The next assay deals with Spodoptera frugiperda. The assay is described as follows: Spodoptera frugiperda test. The conditions noted are these: 500 ppm active compound, cabbage leaves dipped. As to the method: as §3, with “army worm (Spodoptera frugiperda)” for “diamondback moth (Plutella xylostella)”
Assay [17] relates to Amaranthus. The assay is described as follows: Pre-emergence test, Amaranthus. The conditions noted are these: pre-emergence/greenhouse; 250 g of ai/ha; after three weeks. On the procedure: as §4
In assay [18] the test system is Amaranthus. The assay is described as follows: Post-emergence test, Amaranthus. The conditions noted are these: post-emergence/greenhouse; 250 g of ai/ha; after three weeks. As to the method: as §4, with “Test plants” for “Seeds”, “a height of 5-15 cm” for “the test plants”, “are” for “are sown in normal soil. After about 24 hours, the soil is”, “(=like” for “(like”

In a further assay the test system is Tetranychus urticae. The experiment in a line: Tetranychus test (OP-resistant/dip treatment). The conditions noted are these: 100 ppm active compound, bean plants dipped, OP-resistant. As to the method: [table] To produce a suitable preparation of active compound, 1 part by weight of active compound is mixed with the stated amounts of solvent and emulsifier, and the concentrate is diluted with emulsifier-containing water to the desired concentration. Bean plants (Phaseolus vulgaris) which are heavily infested by all stages of the greenhouse […] spider mite (Tetranychus urticae) are dipped into a preparation of active compound of the desired concentration. After the desired period of time, the activity in % is determined. 100% means that all spider mites have been killed; 0% means that none of the spider mites have been killed.

Structures are written as SMILES.

Here are results for six compounds from patent US8063096B2, “Spirocyclic 3-phenyl-3substituted-4-ketolactams and-lactones” (Bayer Cropscience AG, priority 2001, dated 2011).

Turning to `Cc1cc(Br)cc(C)c1C1(Cl)C(=O)NC2(CCOCC2)C1=O` (stereo not shown) [Ex. I-1-c-3], in the assay on Aphis gossypii [1], the “Kill rate in % after 6d” value is recorded as 90%. The “Kill rate in % after 7d” value in the assay with Aphis gossypii [2] (infection after 7 d) is 100%; with Aphis gossypii [2] (infection after 21 d), 98^ %; in the assay on Aphis gossypii [2] (infection after 35 d), 98^ %; in the assay on Plutella xylostella it was 100%; in the assay with Myzus persicae [3] (infection after 7 d), 99%; in the assay on Myzus persicae [3] (infection after 21 d) it was 100%. The “Kill rate in % after 7d” value with Myzus persicae [3] (infection after 35 d) is 99%.

Take `COC1CCC2(CC1)NC(=O)C(Cl)(c1cc(C)ccc1Br)C2=O` (stereo not shown) [Ex. I-1-a-28]: the “Kill rate in % after 6d” value in the assay on Aphis gossypii [1] is 90%. Moreover, the “Kill rate in % after 7d” value with Plutella xylostella and in the assay on Phaedon cochleariae was 100% each time.

Take `CCc1cc(Cl)cc(CC)c1C1(Cl)C(=O)NC2(CCC(OC)CC2)C1=O` (stereo not shown) [Ex. I-1-a-43]: the entries for the “% damage, Alopecurus” value in the assay on Alopecurus [4] and in the assay on Alopecurus [15] were 95% and 90%, respectively. Also, the “% damage, Avena fatua” value with Avena fatua [5] and with Avena fatua [6] was 100% throughout. Also, the “% damage, Echinochloa” value in the assay with Echinochloa [7] and in the assay with Echinochloa [8] was 100% throughout. The “% damage, Setaria” value in the assay with Setaria [9] and in the assay with Setaria [11] was 100% each time. Further, the “% damage, Sugar beet” value in the assay with Sugar beet [10] and in the assay with Sugar beet [14] was 0% in each case. Besides, in the assay with Myzus persicae [12], the “Kill rate in % after 6d” value came out at 90%. Further, the “% damage, Sinapis” value with Sinapis [13] is recorded as 70%. Besides, the “Kill rate in % after 14d” value in the assay with Meloidogyne incognita is listed as 95%.

In the case of `Cc1cc(Br)cc(Cl)c1C1(Cl)C(=O)NC2(CCOCC2)C1=O` (stereo not shown) [Ex. I-1-c-2], the “Kill rate in % after 7d” value in the assay on Aphis gossypii [2] (infection after 7 d) is given as 100%; in the assay with Aphis gossypii [2] (infection after 21 d), 98^ %; in the assay on Aphis gossypii [2] (infection after 35 d), 98^ %; with Plutella xylostella it was 100%; with Myzus persicae [3] (infection after 7 d) it was 100%; in the assay with Myzus persicae [3] (infection after 21 d), 100%. The “Kill rate in % after 7d” value in the assay with Myzus persicae [3] (infection after 35 d) is on record as 99%.

Regarding `COC1CCC2(CC1)NC(=O)C(Cl)(c1c(C)cc(C)cc1Cl)C2=O` (stereo not shown) [Ex. I-1-a-8], the “% damage, Alopecurus” value in the assay on Alopecurus [4] and with Alopecurus [15] was 100% each time. Besides, the “% damage, Avena fatua” value in the assay with Avena fatua [5] came out at 90%; in the assay on Avena fatua [6], 100%. Besides, the figures for the “% damage, Sinapis” value in the assay with Sinapis [16] and in the assay on Sinapis [13] were 100% and 80%, respectively. Besides, the “Kill rate in % after 7d” value in the assay with Spodoptera frugiperda and with Tetranychus urticae was 100% in each case. The “% damage, Echinochloa” value in the assay with Echinochloa [7] and in the assay on Echinochloa [8] was 100% in each case. Also, the “% damage, Setaria” value with Setaria [9] and with Setaria [11] was 100% each time. Further, the “% damage, Amaranthus” value is listed as 100% in the assay with Amaranthus [17] and 90% in the assay with Amaranthus [18].

Take `COC1CCC2(CC1)NC(=O)C(Cl)(c1ccc(C)cc1Cl)C2=O` (stereo not shown) [Ex. I-1-a-3]: the “Kill rate in % after 7d” value with Spodoptera frugiperda stood at 100%.
